Assay results reported in patent US20140249135A1, “PIM KINASE INHIBITORS AND METHODS OF THEIR USE” (NOVARTIS AG, priority 2007, published 2014).
Like-named read-outs stand apart in the source and are kept apart here.

Key:
KDR kinase = KDR kinase (Homo sapiens, UniProt P35968); test: KDR AlphaScreen assay; conditions: KDR IC50 (μM)
Pim1 kinase = Pim1 kinase (Homo sapiens, UniProt P11309); test: Pim1 ATP depletion assay; format: biochemical; conditions: Pim1 ATP depletion assay;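 also: Luciferase-luciferin luminescence readout of residual ATP after PIM1 transfers phosphate to a peptide substrate, 40 µM ATP added, reaction run to roughly half ATP consumption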
Pim1 kinase, sequence (P11309 whole entry): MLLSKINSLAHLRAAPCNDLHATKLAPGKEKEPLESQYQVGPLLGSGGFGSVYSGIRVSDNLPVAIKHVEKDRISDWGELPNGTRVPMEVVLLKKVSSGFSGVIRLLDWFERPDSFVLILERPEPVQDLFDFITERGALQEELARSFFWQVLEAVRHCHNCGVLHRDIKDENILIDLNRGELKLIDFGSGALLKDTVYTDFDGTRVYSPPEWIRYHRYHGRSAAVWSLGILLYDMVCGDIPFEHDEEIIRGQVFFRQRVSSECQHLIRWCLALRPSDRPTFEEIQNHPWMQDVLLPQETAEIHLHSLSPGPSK

Pim3 kinase = Pim3 kinase (Homo sapiens, UniProt Q86V86); test: Pim3 ATP depletion assay; format: biochemical
[1] = target: T1, human full length PKCE enzyme (Homo sapiens, UniProt Q02156); test: In vitro PKCE assay; format: biochemical; conditions: 10 nM enzyme, 40 uM peptide substrate, 20 uM ATP, KinaseGlo Plus readout; read-out: PKCε IC50
T1 construct: human full length PKCE enzyme purchased from InVitrogen; purchased InVitrogen
T1 sequence (Q02156 1-737): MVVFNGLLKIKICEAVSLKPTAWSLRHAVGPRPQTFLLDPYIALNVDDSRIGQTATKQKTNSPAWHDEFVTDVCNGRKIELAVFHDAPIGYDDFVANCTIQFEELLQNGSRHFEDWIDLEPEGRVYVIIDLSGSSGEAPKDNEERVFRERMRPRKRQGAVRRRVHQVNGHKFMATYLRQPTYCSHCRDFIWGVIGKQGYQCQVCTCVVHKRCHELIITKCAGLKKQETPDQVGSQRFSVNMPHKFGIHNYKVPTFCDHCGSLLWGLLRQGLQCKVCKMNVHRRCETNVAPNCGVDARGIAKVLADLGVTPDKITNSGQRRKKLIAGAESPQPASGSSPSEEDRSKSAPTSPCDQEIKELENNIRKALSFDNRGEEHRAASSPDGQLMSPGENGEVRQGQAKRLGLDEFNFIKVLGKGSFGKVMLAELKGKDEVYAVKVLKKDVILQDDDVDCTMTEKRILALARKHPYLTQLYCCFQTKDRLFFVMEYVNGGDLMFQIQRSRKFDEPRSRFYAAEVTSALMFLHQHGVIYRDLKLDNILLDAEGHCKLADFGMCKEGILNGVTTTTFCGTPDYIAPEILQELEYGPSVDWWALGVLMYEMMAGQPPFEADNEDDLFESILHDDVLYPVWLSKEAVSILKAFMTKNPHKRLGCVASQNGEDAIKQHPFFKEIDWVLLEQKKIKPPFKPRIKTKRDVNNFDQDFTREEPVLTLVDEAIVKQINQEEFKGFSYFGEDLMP

Pim2 kinase = Pim2 kinase (Homo sapiens, UniProt Q9P1W9); test: Pim2 ATP depletion assay; format: biochemical;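 also: Luciferase-based luminescent readout of ATP remaining after PIM2 phosphorylates a BAD peptide, final 5 nM enzyme, 4 µM ATP, 10 µM peptide, 2.5% DMSO, run to roughly half ATP consumption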
Pim2 kinase, sequence (Q9P1W9 whole entry): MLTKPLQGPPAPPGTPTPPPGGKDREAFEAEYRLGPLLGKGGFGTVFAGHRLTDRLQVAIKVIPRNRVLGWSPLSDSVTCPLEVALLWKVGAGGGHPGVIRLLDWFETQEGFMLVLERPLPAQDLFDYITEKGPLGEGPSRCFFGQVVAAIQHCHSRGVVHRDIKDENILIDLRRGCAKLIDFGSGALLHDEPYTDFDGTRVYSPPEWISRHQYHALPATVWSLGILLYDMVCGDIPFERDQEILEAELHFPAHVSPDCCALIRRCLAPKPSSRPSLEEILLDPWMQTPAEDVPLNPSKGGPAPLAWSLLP

KDR kinase, sequence (P35968 20-1356): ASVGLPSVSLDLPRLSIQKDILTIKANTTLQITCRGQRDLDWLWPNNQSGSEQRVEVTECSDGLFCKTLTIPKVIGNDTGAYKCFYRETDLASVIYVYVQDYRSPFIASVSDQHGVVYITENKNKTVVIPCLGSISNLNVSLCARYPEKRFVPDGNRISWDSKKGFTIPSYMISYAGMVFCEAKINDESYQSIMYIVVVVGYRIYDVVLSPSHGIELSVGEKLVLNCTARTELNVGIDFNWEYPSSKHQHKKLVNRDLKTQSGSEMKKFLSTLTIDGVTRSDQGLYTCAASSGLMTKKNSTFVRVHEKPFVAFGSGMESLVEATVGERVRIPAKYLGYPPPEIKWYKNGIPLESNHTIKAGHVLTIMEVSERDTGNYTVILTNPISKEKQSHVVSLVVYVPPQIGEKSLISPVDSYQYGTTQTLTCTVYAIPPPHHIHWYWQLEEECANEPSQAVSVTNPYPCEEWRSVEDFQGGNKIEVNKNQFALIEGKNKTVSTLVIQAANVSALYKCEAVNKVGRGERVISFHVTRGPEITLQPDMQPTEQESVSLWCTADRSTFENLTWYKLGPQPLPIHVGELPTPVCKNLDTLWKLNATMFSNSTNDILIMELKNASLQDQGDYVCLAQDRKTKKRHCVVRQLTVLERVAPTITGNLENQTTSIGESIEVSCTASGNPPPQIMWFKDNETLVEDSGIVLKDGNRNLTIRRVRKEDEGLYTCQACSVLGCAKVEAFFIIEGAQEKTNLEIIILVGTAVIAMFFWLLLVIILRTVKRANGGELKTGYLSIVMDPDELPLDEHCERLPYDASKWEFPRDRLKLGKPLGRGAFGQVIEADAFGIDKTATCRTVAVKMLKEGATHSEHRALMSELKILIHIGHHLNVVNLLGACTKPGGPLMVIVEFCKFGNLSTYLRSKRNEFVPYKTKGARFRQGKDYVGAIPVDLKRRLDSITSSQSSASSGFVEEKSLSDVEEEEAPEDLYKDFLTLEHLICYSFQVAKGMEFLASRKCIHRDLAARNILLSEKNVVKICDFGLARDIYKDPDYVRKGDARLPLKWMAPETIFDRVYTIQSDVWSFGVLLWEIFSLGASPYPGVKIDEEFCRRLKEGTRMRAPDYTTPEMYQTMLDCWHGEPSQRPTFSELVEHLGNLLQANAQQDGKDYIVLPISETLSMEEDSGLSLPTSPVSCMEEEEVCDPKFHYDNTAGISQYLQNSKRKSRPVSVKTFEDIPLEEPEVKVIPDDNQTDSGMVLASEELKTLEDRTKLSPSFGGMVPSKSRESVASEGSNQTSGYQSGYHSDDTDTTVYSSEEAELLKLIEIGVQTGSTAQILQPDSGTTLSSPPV

| SMILES | IC50 (KDR kinase) [µM] | IC50 (Pim1 kinase; read-out: PIM1 IC50) [µM] | IC50 (Pim3 kinase; read-out: PIM3 IC50) [µM] | IC50 [1] [µM] | IC50 (Pim2 kinase; read-out: PIM2 IC50) [µM] | IC50 (Pim1 kinase; read-out: IC50 (μM) PIM1) [µM] | IC50 (Pim3 kinase; read-out: IC50 (μM) PIM3) [µM] | IC50 (Pim2 kinase; read-out: IC50 (μM) PIM2) [µM] |
| --- | --- | --- | --- | --- | --- | --- | --- | --- |
| Nc1ncc(Br)nc1C(=O)Nc1cnccc1N1CCCC(NCc2ccccc2)C1 (stereo not shown) [Example 598, 3-amino-6-bromo-pyrazine-2-carboxylic acid (3-benzylamino-3,4,5,6-tetrahydro-2H-[1,4′]bi-pyridinyl-3′-yl)-amide] | 1 to 10 | < 1 | < 1 | 1 to 10 | 1 to 10 |  |  |  |
| Nc1nccnc1C(=O)Nc1cccnc1N1CCCC(N)C1 (stereo not shown) [Example 196, 3-amino-N-[2-(3-aminopiperidin-1-yl)pyridin-3-yl]pyrazine-2-carboxamide] | > 25 |  |  | 1 to 10 |  | 1 to 10 | 1 to 10 | 10 to 25 |
| NC(=O)c1cccc(-c2cnc(N)c(C(=O)Nc3ccccc3N3CCNCC3)n2)c1 [Example 385, 3-amino-6-(3-carbamoyl-phenyl)-pyrazine-2-carboxylic acid (2-piperazin-1-yl-phenyl)-amide] | 1 to 10 |  |  | < 1 |  | < 1 | < 1 | 1 to 10 |
| Nc1nc(N)c(C(=O)Nc2[nH]c(=O)ncc2N2CCCC(N)C2)nc1Cl (stereo not shown) [Example 134, 3,5-diamino-N-[5-(3-amino-piperidin-1-yl)-2-oxo-2,3-dihydropyrimidin-4-yl]-6-chloropyrazine-2-carboxamide] | 1 to 10 |  |  | 1 to 10 |  | < 1 | < 1 | < 1 |
| COc1ncccc1-c1cnc(N)c(C(=O)Nc2ccccc2N2CCNCC2)n1 [Example 390, 3-amino-6-(2-methoxy-pyridin-3-yl)-pyrazine-2-carboxylic acid (2-piperazin-1-yl-phenyl)-amide] | 1 to 10 |  |  | < 1 |  | < 1 | 1 to 10 | > 25 |
| Nc1ncc(-c2ccoc2)nc1C(=O)Nc1ccccc1N1CCNCC1 [Example 384, 3-amino-6-furan-3-yl-pyrazine-2-carboxylic acid (2-piperazin-1-yl-phenyl)-amide] | 1 to 10 |  |  | < 1 |  | < 1 | 1 to 10 | 1 to 10 |
| N#Cc1ccc(N2CCCC(N)C2)c(NC(=O)c2nccnc2N)c1 (stereo not shown) [Example 230, 3-amino-N-[2-(3-aminopiperidin-1-yl)-5-cyanophenyl]pyrazine-2-carboxamide] | > 25 |  |  | < 1 |  | < 1 | < 1 | < 1 |
| Nc1ncc(-c2ccccc2)nc1C(=O)Nc1cc(C(=O)c2ccccc2)ccc1N1CCCC(N)C1 (stereo not shown) [Example 435, 3-amino-6-phenyl-pyrazine-2-carboxylic acid [2-(3-amino-piperidin-1-yl)-5-benzoyl-phenyl]-amide] | < 1 |  |  | 10 to 25 |  | 1 to 10 | 1 to 10 | 1 to 10 |
| NC(=O)c1cccc(-c2cnc(N)c(C(=O)Nc3cnccc3N3CCCC(N)C3)n2)c1 (stereo not shown) [Example 369, 3-amino-6-(3-carbamoyl-phenyl)-pyrazine-2-carboxylic acid (3-amino-3,4,5,6-tetra-hydro-2H-[1,4′]bipyridinyl-3′-yl)-amide] | < 1 |  |  | < 1 |  | < 1 | < 1 | < 1 |
| NCCC(=O)N1CCN(c2cnc(=O)[nH]c2NC(=O)c2nccnc2N)CC1 [Example 237, 3-amino-N-{5-[4-(3-amino-propanoyl)piperazin-1-yl]-2-oxo-2,3-dihydropyrimidin-4-yl}-pyrazine-2-carboxamide] | < 1 |  |  | 1 to 10 |  | < 1 | < 1 | < 1 |
| COc1ccc(-c2cnc(N)c(C(=O)Nc3cc(C(=O)c4ccccc4)ccc3N3CCNCC3)n2)cc1 [Example 441, 3-amino-6-(4-methoxy-phenyl)-pyrazine-2-carboxylic acid (5-benzoyl-2-piperazin-1-yl-phenyl)-amide] | < 1 |  |  | 10 to 25 |  | 1 to 10 | 1 to 10 | > 25 |
| Nc1nccnc1C(=O)Nc1cc(Cl)ccc1N1CCNCC1 [Example 213, 3-amino-N-(5-chloro-2-piperazin-1-ylphenyl)pyrazine-2-carboxamide] | > 25 |  |  | 1 to 10 |  | 1 to 10 | 1 to 10 | > 25 |
| NC(=O)c1cccc(-c2cnc(N)c(C(=O)Nc3ccccc3N3CCC(N)CC3)n2)c1 [Example 380, 3-amino-6-(3-carbamoyl-phenyl)-pyrazine-2-carboxylic acid [2-(4-amino-piperidin-1-yl)-phenyl]-amide] | < 1 |  |  | < 1 |  | < 1 | < 1 | 1 to 10 |
| Nc1nccnc1C(=O)Nc1cc(C(=O)C2CC2)ccc1N1CCCC(N)C1 (stereo not shown) [Example 243, 3-amino-pyrazine-2-carboxylic acid [2-(3-amino-piperidin-1-yl)-5-cyclopropanecarbonyl-phenyl]-amide] | > 25 |  |  | 1 to 10 |  | 1 to 10 | 1 to 10 | 10 to 25 |
| CC(=O)NC1CCCN(c2ccncc2NC(=O)c2nc(Br)cnc2N)C1 (stereo not shown) [Example 304, N-(4-(3-acetamidopiperidin-1-yl)pyridin-3-yl)-3-amino-6-bromopyrazine-2-carboxamide] | < 1 |  |  | 1 to 10 |  | < 1 | 1 to 10 | > 25 |
| COc1ccc(N2CCC(N)CC2)c(NC(=O)c2nc(-c3ccccc3)cnc2N)c1 [Example 437, 3-amino-6-phenyl-pyrazine-2-carboxylic acid [2-(4-amino-piperidin-1-yl)-5-methoxy-phenyl]-amide] | 1 to 10 |  |  | < 1 |  | < 1 | < 1 | < 1 |
| Cc1ccc(NC(=O)c2nccnc2N)c(N2CCCC(N)C2)c1 (stereo not shown) [Example 229, 3-amino-N-[2-(3-aminopiperidin-1-yl)-4-methylphenyl]pyrazine-2-carboxamide] | > 25 |  |  | 1 to 10 |  | < 1 | < 1 | 1 to 10 |
| Cc1ccc(NC(=O)c2nccnc2N)c(N2CCNCC2)c1 [Example 227, 3-amino-N-(4-methyl-2-piperazin-1-ylphenyl)pyrazine-2-carboxamide] | > 25 |  |  | 1 to 10 |  | 1 to 10 | 1 to 10 | > 25 |
| Nc1ncc(-c2ccccc2Oc2ccccc2)nc1C(=O)Nc1ccccc1N1CCNCC1 [Example 387, 3-amino-6-(2-phenoxy-phenyl)-pyrazine-2-carboxylic acid (2-piperazin-1-yl-phenyl)-amide] | 10 to 25 |  |  | 1 to 10 |  | 1 to 10 | 1 to 10 | > 25 |
| Nc1ncc(-c2ccoc2)nc1C(=O)Nc1ccccc1N1CCC(N)CC1 [Example 379, 3-amino-6-furan-3-yl-pyrazine-2-carboxylic acid [2-(4-amino-piperidin-1-yl)-phenyl]-amide] | 1 to 10 |  |  | < 1 |  | < 1 | < 1 | 1 to 10 |
| NCC(=O)N1CCN(c2ccncc2NC(=O)c2nc(Cl)c(N)nc2N)CC1 [Example 186, 3,5-diamino-N-{4-[4-(amino-acetyl)piperazin-1-yl]pyridin-3-yl}-6-chloropyrazine-2-carboxamide] | 1 to 10 |  |  | 1 to 10 |  | < 1 | < 1 | < 1 |
| COc1ccc(-c2cnc(N)c(C(=O)Nc3ccccc3N3CCC(N)CC3)n2)cc1 [Example 381, 3-amino-6-(4-methoxy-phenyl)-pyrazine-2-carboxylic acid [2-(4-amino-piperidin-1-yl)-phenyl]-amide] | 1 to 10 |  |  | < 1 |  | < 1 | < 1 | < 1 |
| COc1ccc(-c2cnc(N)c(C(=O)Nc3ccccc3N3CCNCC3)n2)cc1 [Example 386, 3-amino-6-(4-methoxy-phenyl)-pyrazine-2-carboxylic acid (2-piperazin-1-yl-phenyl)-amide] | 1 to 10 |  |  | < 1 |  | < 1 | < 1 | 1 to 10 |
